According to patent publication US20170267727A1, “Conjugates of pH Low Insertion Peptide and Monomethyl Auristatins in the Treatment of Solid Tumors” (Lehigh University, priority 2016, published 2017):
“Also recorded” adds a separate entry of the source. Positions of bridges follow the written chain, without caps; N, C: chain ends. Non-standard residues stand in square brackets, D forms with d. Chains are numbered I, II in the order given. *: point of attachment. Dolaproine = CO[C@@H]([C@@H]1CCCN1)[C@@H](C)C(=O)O; Dil = CC[C@H](C)[C@H](NC)[C@@H](CC(=O)O)OC; X1 = C[C@@H](N*)[C@@H](O)c1ccccc1; NMeV = CN[C@H](C(=O)O)C(C)C; Mpa = O=C(O)CCS

Columns and labels:
[1] = Construct Stability HPLC in Cell Media; type: physicochemical; conditions: 10 μM, 2 h at pH 5.0 and 37° C.
Description: FIG. 8A, FIG. 8B, and FIG. 8C show Purity check and Chemical stability of pHLIP-MMAE conjugates. (FIG. 8A) and (FIG. 8B): HPLC traces of pHLIP(WT)-MMAE and pHLIP(D25E)-MMAE, respectively: Purified conjugates (upper panels), 10 μM of conjugate in cell media (middle panels) and after incubation in cell media for 2 h at pH 5.0 and 37° C. (lower panels). The small peak observed around 27 min in (FIG. 8B) upper panel corresponds to some residual free pHLIP (<15%), which is known to not be cytotoxic (FIG. 7). (FIG. 8C) HPLC traces of Alexa750-pHLIP(WT)-MMAE: Purified conjugate (upper panel), 10 μM Alexa 750-pHLIP(WT)-MMAE before (upper panel) and after 48 h incubation in mouse serum at 37° C. (lower panel). Purity checks and chemical stability runs were performed on different column and with different flow rate, explaining the difference in retention times and peak broadness (see Experimental Section). […]
Peptide solutions were incubated at either pH 7.4 or pH 5.0 (37° C. and 5% CO2) and 100 μL aliquots were monitored via RP-HPLC at various time points (Agilent Eclipse XDB-C18 […] 9.4×250 mm; flow rate 2 mL/min; phase A: water 0.01% TFA; phase B: acetonitrile 0.01% TFA; gradient 45 min from 95/5 A/B to 0/100 A/B). […] The stability of Alexa750-pHLIP(WT)-MMAE was determined in mouse serum by solubilizing the construct to incubating it at 37° C. and monitoring via RP-HPLC at specific time points.

MDA-MB-231 cells [2] = test: Anti-proliferation Assay (2 hours treatment at pH 7.4 or 5.0, 72 hours growth, MTT); conditions: for cell killing (printed 49% versus 100%): 1.25 μM treatment
Description: FIG. 3A, FIG. 3C and FIG. 3E show HeLa cells treated with pHLIP(WT)-MMAE, pHLIP(D25E)-MMAE, and MMAE(linker), respectively. FIG. 3B, FIG. 3D and FIG. 3F show MDA-MB-231 cells treated with pHLIP(WT)-MMAE, pHLIP(D25E)-MMAE, and MMAE(linker), respectively. Black columns represent cells treated at pH 7.4 and cells treated at low pH are shown in grey. For each condition, 3,000 cells/well (96-well plate) were seeded, allowed to adhere overnight, treated for 2 hours, washed once with media and grown for 72 hour in complete medium at physiologic pH. Cell viability was assessed with the MTT assay. All measurements were normalized to the media control (0 μM, pH 7.4), as 100% cell viability. Results are shown as mean±SD (n=6-9).
Anti-proliferation Assay. HeLa and MDA-MB-231 cells were seeded in 96-well plates at a density of 3,000 cells/well and incubated overnight. Before treatment, construct aliquots were solubilized in an appropriate volume of DMEM without FBS (pH 7.4)—so that upon pH adjustment the desired treatment concentration is obtained—and gently sonicated for 30-60 seconds using a bath sonicator (Branson Ultrasonics). After removal of cell media, this treatment solution was added to each well and incubated at 37° C. for 5-10 minutes. The pH was then adjusted to the desired value using a pre-established volume of DMEM, pH 2.0 buffered with citric acid (final volume=50 μL) and the plate was incubated at 37° C. for 2 hours. After treatment, the media was removed, cells were washed once with 100 μL of complete DMEM, and 100 μL of complete medium was added to each well before returning the plate to the incubator. Treatment solutions were collected and their pH values measured using a micro-combination pH probe (Microelectrodes, Inc.). […] Cell viability was determined after 72 hours using the colorimetric MTT assay. Briefly, 10 μL of a 5 mg/mL MTT stock solution was added to the treated cells and incubated for 2 hours at 37° C. The resulting formazan crystals were solubilized in 200 μL DMSO and the absorbance measured at 580 nm using an Infinite 200 PRO microplate reader (Tecan). Cell viability was calculated against control cells treated with media at physiologic pH.
Inhibition of Cell Proliferation. The ability of pHLIP to move MMAE across the cell membrane and to inhibit cancer cell proliferation in concentration and pH-dependent manners was evaluated. Cell treatments for both pHLIP(WT)-MMAE and pHLIP(D25E)-MMAE constructs were carried out with conjugate concentrations ranging from 1.25 to 10 μM at either pH 7.4 or 5.0. After a 2-hour incubation at 37° C., the treatment media was replaced by fresh media, and cells were grown for an additional 72 hours at normal pH before assessing cell viability using the MTT assay. […] This treatment protocol is quite stringent when compared to the typical multi-days exposure treatments used with free drugs (FIG. 6A and FIG. 6B).

MDA-MB-231 cells [3] = conditions: 10 μM, 2 hours, pH 7.4 or pH 5.0
Description: (§1) The integrity of the plasma membrane is assessed by the uptake of trypan blue dye. 3,000 cells/well of HeLa (FIG. 4A) and MDA-MB-231 (FIG. 4B) cells were seeded, allowed to adhere overnight and treated with 10 μM conjugates or media alone (no peptide) for 2 hours at pH 7.4 (black bars) or pH 5.0 (grey bars). Cells were detached and counted based on trypan blue uptake with a hemacytometer: % of intact cells corresponds to the number of cells not showing any dye uptake over the total number of cells. Results are shown as mean±SD (n=4).
(§2) Cell Membrane Integrity Assay. HeLa and MDA-MB-231 cells were seeded in 96-well plates at a density of 3,000 cells/well and incubated until confluent (˜72 hours). Before treatment, construct aliquots were solubilized in an appropriate volume of DMEM without FBS (pH 7.4) so that upon pH adjustment 10 μM is obtained. Cell media was removed, the treatment solution was added to each well and cell were incubated at 37° C. for 5-10 minutes. The pH was then adjusted to the desired value using a pre-established volume of DMEM, pH 2.0 buffered with citric acid (final volume=50 μL). The plate was incubated at 37° C. for 2 hours. After treatment, the media was removed, cells were detached using trypsin and counted based on trypan blue uptake using a hemacytometer.

HeLa cells = conditions: 10 μM, 2 hours, pH 7.4 or pH 5.0
Description: as §1, §2

In the case of “I: H-AAEQNPIYWARYADWLFTTPLLLLELALLVDADEGTCG-NH2 / II: [Mpa][NMeV]V[Dil][Dolaproine]-X1 (disulfide I:37-II:1) [pHLIP(D25E)-MMAE]”, the “degradation in cell media by HPLC or mass spectroscopy” value [1] is reported as “No significant degradation; also recorded: no degradation products are observed”, the “cell killing (printed 49% versus 100%)” value (MDA-MB-231 cells [2]) is reported as 49% and the “disruption of the plasma membrane” value (MDA-MB-231 cells [3]) is reported as “neither conjugates, nor low pH treatment, caused disruption of the membranes”. The “disruption of the plasma membrane” value (HeLa cells) was “neither conjugates, nor low pH treatment, caused disruption of the membranes”.

For “I: H-AAEQNPIYWARYADWLFTTPLLLLDLALLVDADEGTCG-OH / II: [Mpa][NMeV]V[Dil][Dolaproine]-X1 (disulfide I:37-II:1) [pHLIP(WT)-MMAE]”, the “degradation in cell media by HPLC or mass spectroscopy” value [1] was “No significant degradation; also recorded: no degradation products are observed”, the “cell killing (printed 49% versus 100%)” value (MDA-MB-231 cells [2]) was 100% and the inhibition of proliferation (MDA-MB-231 cells [2]; normal pH) was “no significant inhibition of proliferation”. For the same substance, the “disruption of the plasma membrane” value (MDA-MB-231 cells [3]) was “neither conjugates, nor low pH treatment, caused disruption of the membranes” and the “disruption of the plasma membrane” value (HeLa cells) was “neither conjugates, nor low pH treatment, caused disruption of the membranes”.
